Laboratory results as given in patent publication US20240101570A1 (AMGEN INC., priority 2020, published 2024).

Columns and labels:
HCT116 MTAP null cells = assay: HCT116 MTAP null cell proliferation / viability (CellTiter-Glo, 6 days); assay type: cell-based; conditions: HCT116-MTAP null, 144 h, HCT116 MTAP null cells, 6 days, CellTiter-Glo; read-out: HCT-116 MTAP null IC50
In short: (§1)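 CellTiter-Glo luminescence, 6-day exposure, RPMI 1640 + 10% FBS. Dosing: 1:3 series (8-9 pts, top 1 or 10 μM) or 1:2 series (22 pts, top 10 or 50 μM), DMSO control. IC50 = 50% of control via curve fit.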

HCT116 WT cells = assay: HCT116 WT cell proliferation / viability (CellTiter-Glo, 6 days); assay type: cell-based; conditions: Homo sapiens, HCT-116, 144 h, HCT116 WT cells, 6 days, CellTiter-Glo; read-out: HCT-116 WT IC50
In short: as §1

`CCN(Cc1ccc(C(F)(F)F)cn1)C(=O)c1cc2c(cc1F)nc(N)c1c2cnn1C` [Example 427, 4-amino-N-ethyl-7-fluoro-3-methyl-N-((5-(trifluoromethyl)-2-pyridinyl)methyl)-3H-pyrazolo[3,4-c]quinoline-8-carboxamide] was tested, and the IC50 (HCT116 MTAP null cells) was 44 nM and the IC50 (HCT116 WT cells) was 1680 nM.
`CCN(Cc1ccc(C(F)(F)F)cn1)C(=O)c1ccc2nc(N)c3ccncc3c2c1` [Example 428, 5-amino-N-ethyl-N-((5-(trifluoromethyl)-2-pyridinyl)methyl)benzo[c][2,6] naphthyridine-9-carboxamide] gave an IC50 (HCT116 MTAP null cells) of 101 nM and an IC50 (HCT116 WT cells) of 1250 nM.
Work on `CN(Cc1ccc(C2=CCOCC2)cn1)C(=O)c1ccc2nc(N)c3c(c2c1)COC3` [Example 429, 4-amino-N-((5-(3,6-dihydro-2H-pyran-4-yl)-2-pyridinyl)methyl)-N-methyl-1,3-dihydrofuro[3,4-c]quinoline-8-carboxamide] yielded an IC50 (HCT116 MTAP null cells) of 1260 nM and an IC50 (HCT116 WT cells) of 31800 nM.
With `COC(=O)N1CC=C(c2ccc(CN(C)C(=O)c3ccc4nc(N)c5c(c4c3)COC5)nc2)CC1` [Example 430, methyl 6-((((4-amino-1,3-dihydrofuro[3,4-c]quinolin-8-yl)carbonyl)(methyl)amino)methyl)-3′,6′-dihydro[3,4′-bipyridine]-1′(2′H)-carboxylate] the IC50 (HCT116 MTAP null cells) was 312 nM and the IC50 (HCT116 WT cells) was 12800 nM.
`CC(C)N(Cc1ccc(C(F)(F)F)cn1)C(=O)c1ccc2[nH]c(=O)n3nccc3c2c1` [Example 431, 5-oxo-N-(2-propanyl)-N-((5-(trifluoromethyl)-2-pyridinyl)methyl)-5,6-dihydropyrazolo[1,5-c]quinazoline-9-carboxamide] was tested, and the IC50 (HCT116 MTAP null cells) was 14300 nM and the IC50 (HCT116 WT cells) was 23500 nM.
Work on `Cc1nn(C)c2c1c(N)nc1ccc(C(=O)N(Cc3ccc(C(F)(F)F)cn3)C(C)C)cc12` [Example 432, 4-amino-1,3-dimethyl-N-(2-propanyl)-N-((5-(trifluoromethyl)-2-pyridinyl)methyl)-1H-pyrazolo[4,3-c]quinoline-8-carboxamide] yielded an IC50 (HCT116 MTAP null cells) of 203 nM and an IC50 (HCT116 WT cells) of 6390 nM.
In the case of `CC(C)N(Cc1cnc(C(F)(F)F)cn1)C(=O)c1ccc2nc(N)c3c(c2c1)CO[C@@H]3C` [Example 434, (3R)-4-amino-3-methyl-N-(2-propanyl)-N-((5-(trifluoromethyl)-2-pyrazinyl)methyl)-1,3-dihydrofuro[3,4-c]quinoline-8-carboxamide], the IC50 (HCT116 MTAP null cells) is reported as 584 nM and the IC50 (HCT116 WT cells) is reported as 23900 nM.
`C[C@H](c1ncccn1)N(Cc1ccc(C(F)(F)F)cn1)C(=O)c1cc2c3c(c(N)nc2cc1F)COC3` [Example 435, 4-amino-7-fluoro-N-((1R)-1-(2-pyrimidinyl)ethyl)-N-((5-(trifluoromethyl)-2-pyridinyl)methyl)-1,3-dihydrofuro[3,4-c]quinoline-8-carboxamide] gave an IC50 (HCT116 MTAP null cells) of 14 nM and an IC50 (HCT116 WT cells) of 65 nM.
In the case of `C[C@H](c1ncccn1)N(Cc1ccc(C#N)cn1)C(=O)c1cc2c3c(c(N)nc2cc1F)COC3` [Example 436, 4-amino-N-((5-cyano-2-pyridinyl)methyl)-7-fluoro-N-((1R)-1-(2-pyrimidinyl)ethyl)-1,3-dihydrofuro[3,4-c]quinoline-8-carboxamide], the IC50 (HCT116 MTAP null cells) is reported as 29 nM and the IC50 (HCT116 WT cells) is reported as 187 nM.
`C[C@H](c1ncccc1F)N(Cc1ccc(Br)nn1)C(=O)c1cc2c3c(c(N)nc2cc1F)COC3` [Example 437, 4-amino-N-((6-bromo-3-pyridazinyl)methyl)-7-fluoro-N-((1R)-1-(3-fluoro-2-pyridinyl)ethyl)-1,3-dihydrofuro[3,4-c]quinoline-8-carboxamide] gave an IC50 (HCT116 MTAP null cells) of 31 nM and an IC50 (HCT116 WT cells) of 353 nM.
In the case of `C[C@H](c1ncccn1)N(Cc1ccc(C(F)F)cn1)C(=O)c1ccc2nc(N)c3c(c2c1)COC3` [Example 438, 4-amino-N-((5-(difluoromethyl)-2-pyridinyl)methyl)-N-((1R)-1-(2-pyrimidinyl)ethyl)-1,3-dihydrofuro[3,4-c]quinoline-8-carboxamide], the IC50 (HCT116 MTAP null cells) is reported as 12 nM and the IC50 (HCT116 WT cells) is reported as 187 nM.
For `C[C@H](c1ncccn1)N(Cc1ccc(Cl)cn1)C(=O)c1ccc2nc(N)c3c(c2c1)COC3` [Example 439, 4-amino-N-((5-chloro-2-pyridinyl)methyl)-N-((1R)-1-(2-pyrimidinyl)ethyl)-1,3-dihydrofuro[3,4-c]quinoline-8-carboxamide], the IC50 (HCT116 MTAP null cells) was 7 nM and the IC50 (HCT116 WT cells) was 138 nM.
With `C[C@@H](c1ncccn1)N(Cc1ccc(C(F)(F)F)nn1)C(=O)c1ccc2nc(N)c3c(c2c1)COC3` [Example 440, 4-amino-N-((1S)-1-(2-pyrimidinyl)ethyl)-N-((6-(trifluoromethyl)-3-pyridazinyl)methyl)-1,3-dihydrofuro[3,4-c]quinoline-8-carboxamide] the IC50 (HCT116 MTAP null cells) was 461 nM and the IC50 (HCT116 WT cells) was > 10000 nM.
`C[C@H](c1ncccn1)N(Cc1ccc(C(F)(F)F)nn1)C(=O)c1ccc2nc(N)c3c(c2c1)COC3` [Example 441, 4-amino-N-((1R)-1-(2-pyrimidinyl)ethyl)-N-((6-(trifluoromethyl)-3-pyridazinyl)methyl)-1,3-dihydrofuro[3,4-c]quinoline-8-carboxamide] showed an IC50 (HCT116 MTAP null cells) of 12 nM and an IC50 (HCT116 WT cells) of 204 nM.
`C[C@H](c1ncccc1F)N(Cc1ccc(C(F)(F)F)nn1)C(=O)c1ccc2nc(N)c3c(c2c1)COC3` [Example 442, 4-amino-N-((1R)-1-(3-fluoro-2-pyridinyl)ethyl)-N-((6-(trifluoromethyl)-3-pyridazinyl)methyl)-1,3-dihydrofuro[3,4-c]quinoline-8-carboxamide] gave an IC50 (HCT116 MTAP null cells) of 9 nM and an IC50 (HCT116 WT cells) of 177 nM.
Molecule `Nc1nc2ccc(C(=O)N(Cc3ccc(C(F)(F)F)cn3)C3CC3)cc2c2c1COC2` [Example 443, 4-amino-N-cyclopropyl-N-((5-(trifluoromethyl)-2-pyridinyl)methyl)-1,3-dihydrofuro[3,4-c]quinoline-8-carboxamide] has an IC50 (HCT116 MTAP null cells) of 127 nM and an IC50 (HCT116 WT cells) of 7210 nM.
`COCC(COC)N(Cc1ccc(C(F)(F)F)cn1)C(=O)c1ccc2nc(N)c3c(c2c1)COC3` [Example 444, 4-amino-N-(1,3-dimethoxy-2-propanyl)-N-((5-(trifluoromethyl)-2-pyridinyl)methyl)-1,3-dihydrofuro[3,4-c]quinoline-8-carboxamide] showed an IC50 (HCT116 MTAP null cells) of 13 nM and an IC50 (HCT116 WT cells) of 343 nM.
Molecule `COC[C@@H](C)N(Cc1ccc(C(F)(F)F)cn1)C(=O)c1ccc2nc(N)c3c(c2c1)COC3` [Example 445, 4-amino-N-((2R)-1-methoxy-2-propanyl)-N-((5-(trifluoromethyl)-2-pyridinyl)methyl)-1,3-dihydrofuro[3,4-c]quinoline-8-carboxamide] has an IC50 (HCT116 MTAP null cells) of 8 nM and an IC50 (HCT116 WT cells) of 153 nM.
Molecule `COc1ccc(CN(C(=O)c2ccc3nc(N)c4c(c3c2)COC4)[C@H](C)c2ncccn2)nn1` [Example 446, 4-amino-N-((6-methoxy-3-pyridazinyl)methyl)-N-((1R)-1-(2-pyrimidinyl)ethyl)-1,3-dihydrofuro[3,4-c]quinoline-8-carboxamide] has an IC50 (HCT116 MTAP null cells) of 12 nM and an IC50 (HCT116 WT cells) of 237 nM.
For `Nc1nc2ccc(C(=O)N(Cc3ccc(C(F)(F)F)cn3)C3CCCn4ncnc43)cc2c2c1COC2` [Example 447, 4-amino-N-((8R)-5,6,7,8-tetrahydro[1,2,4]triazolo[1,5-alpyridin-8-yl)-N-((5-(trifluoromethyl)-2-pyridinyl)methyl)-1,3-dihydrofuro[3,4-c]quinoline-8-carboxamide and 4-amino-N-((8S)-5,6,7,8-tetrahydro[1,2,4]triazolo[1,5-a]pyridin-8-yl)-N-((5-(trifluoromethyl)-2-pyridinyl)methyl)-1,3-dihydrofuro[3,4-c]quinoline-8-carboxamide], the IC50 (HCT116 MTAP null cells) was 31 nM and the IC50 (HCT116 WT cells) was 256 nM.
Molecule `CN(Cc1ccc(C(F)(F)F)cn1)C(=O)c1ccc2nc(N)c3c(c2c1)COC3` [Example 450, 4-amino-N-methyl-N-((5-(trifluoromethyl)-2-pyridinyl)methyl)-1,3-dihydrofuro[3,4-c]quinoline-8-carboxamide] has an IC50 (HCT116 MTAP null cells) of 159 nM and an IC50 (HCT116 WT cells) of 11500 nM.
Molecule `CC(C)N(Cc1ccc(C(F)(F)F)cn1)C(=O)c1ccc2nc(N)c3c(c2c1)COC3` [Example 451, 4-amino-N-(2-propanyl)-N-((5-(trifluoromethyl)-2-pyridinyl)methyl)-1,3-dihydrofuro[3,4-c]quinoline-8-carboxamide] has an IC50 (HCT116 MTAP null cells) of 32 nM and an IC50 (HCT116 WT cells) of 4380 nM.
Work on `Nc1nc2ccc(C(=O)N(Cc3ccc(N4CCOCC4)nn3)CC3CC3)cc2c2c1COC2` [Example 452, 4-amino-N-(cyclopropylmethyl)-N-((6-(4-morpholinyl)-3-pyridazinyl)methyl)-1,3-dihydrofuro[3,4-c]quinoline-8-carboxamide] yielded an IC50 (HCT116 MTAP null cells) of 47 nM and an IC50 (HCT116 WT cells) of 1570 nM.
For `C[C@H](c1ncccn1)N(Cc1ccc(OCC(F)(F)F)nn1)C(=O)c1ccc2nc(N)c3c(c2c1)COC3` [Example 453, 4-amino-N-((1R)-1-(2-pyrimidinyl)ethyl)-N-((6-(2,2,2-trifluoroethoxy)-3-pyridazinyl)methyl)-1,3-dihydrofuro[3,4-c]quinoline-8-carboxamide], the IC50 (HCT116 MTAP null cells) was 35 nM and the IC50 (HCT116 WT cells) was 543 nM.
Molecule `N#Cc1ccc(CN(C(=O)c2ccc3nc(N)c4c(c3c2)COC4)C2CC2)nc1` [Example 454, 4-amino-N-((5-cyano-2-pyridinyl)methyl)-N-cyclopropyl-1,3-dihydrofuro[3,4-c]quinoline-8-carboxamide] has an IC50 (HCT116 MTAP null cells) of 550 nM and an IC50 (HCT116 WT cells) of 17900 nM.
For `Nc1nc2ccc(C(=O)N(Cc3ccc(Br)cn3)C3CC3)cc2c2c1COC2` [Example 455, 4-amino-N-((5-bromo-2-pyridinyl)methyl)-N-cyclopropyl-1,3-dihydrofuro[3,4-c]quinoline-8-carboxamide], the IC50 (HCT116 MTAP null cells) was 148 nM and the IC50 (HCT116 WT cells) was 4780 nM.
In the case of `Nc1nc2ccc(C(=O)N(Cc3ccc(C(F)F)cn3)C3CC3)cc2c2c1COC2` [Example 456, 4-amino-N-cyclopropyl-N-((5-(difluoromethyl)-2-pyridinyl)methyl)-1,3-dihydrofuro[3,4-c]quinoline-8-carboxamide], the IC50 (HCT116 MTAP null cells) is reported as 287 nM and the IC50 (HCT116 WT cells) is reported as > 10000 nM.
